# According to article PMC5218480 (PLoS ONE, 2017):
# Tested on: MV-4-11 cells
# Experiment: Gene expression microarray analysis (Affymetrix PrimeView) and GSEA
# Format: cell-based, human
# Set-up: RFU PODN (11730768_x_at) / Fold change /veh PODN (11730768_x_at) / RFU LINC00158 (11744669_a_at) / Fold change /veh LINC00158 (11744669_a_at) / RFU DUSP10 (11751237_a_at) / Fold change /veh DUSP10 (11751237_a_at) / RFU ID3 (11757404_x_at) / Fold change /veh ID3 (11757404_x_at) / RFU PLEKHG5 (11737974_s_at) / Fold change /veh PLEKHG5 (11737974_s_at) / RFU LRRC4B (11730491_at) / Fold change /veh LRRC4B (11730491_at) / RFU GIMAP4 (11747438_a_at) / Fold change /veh GIMAP4 (11747438_a_at) / RFU KRT8 (11758183_x_at) / Fold change /veh KRT8 (11758183_x_at) / RFU CNN1 (11734310_a_at) / Fold change /veh CNN1 (11734310_a_at) / RFU VPS37D (11726825_at) / Fold change /veh VPS37D (11726825_at) / RFU C10orf10 (11716522_x_at) / Fold change /veh C10orf10 (11716522_x_at) / RFU KIR2DL2 /// KIR2DL4 /// KIR2DL5A /// KIR2DL5B /// KIR2DS1 /// KIR2DS2 /// KIR2DS3 /// KIR2DS4 /// KIR3DL3 /// KIR3DL3 /// KIR3DS1 (11738374_at) / Fold change /veh KIR2DL2 /// KIR2DL4 /// KIR2DL5A /// KIR2DL5B /// KIR2DS1 /// KIR2DS2 /// KIR2DS3 /// KIR2DS4 /// KIR3DL3 /// KIR3DL3 /// KIR3DS1 (11738374_at) / RFU C1QL1 (11718748_at) / Fold change /veh C1QL1 (11718748_at) / RFU TMPRSS4 (11747572_a_at) / Fold change /veh TMPRSS4 (11747572_a_at) / RFU HAMP (11756126_x_at) / Fold change /veh HAMP (11756126_x_at) / RFU RNFT2 (11725882_a_at) / Fold change /veh RNFT2 (11725882_a_at) / RFU NR4A2 (11747474_a_at) / Fold change /veh NR4A2 (11747474_a_at) / RFU ABCC12 (11746883_a_at) / Fold change /veh ABCC12 (11746883_a_at) / RFU TMEM136 (11760407_x_at) / Fold change /veh TMEM136 (11760407_x_at) / RFU CLDN22 /// WWC2 (11732394_at) / Fold change /veh CLDN22 /// WWC2 (11732394_at) / RFU HLA-DPB1 (11760878_x_at) / Fold change /veh HLA-DPB1 (11760878_x_at) / RFU SPINT1 (11716480_a_at) / Fold change /veh SPINT1 (11716480_a_at) / RFU GAP43 (11754022_s_at) / Fold change /veh GAP43 (11754022_s_at) / RFU A4GNT (11735810_at) / Fold change /veh A4GNT (11735810_at) / RFU PRB3 (11715151_x_at) / Fold change /veh PRB3 (11715151_x_at) / RFU TUBB4B (11761932_at) / Fold change /veh TUBB4B (11761932_at) / RFU CAPN14 (11732068_a_at) / Fold change /veh CAPN14 (11732068_a_at) / RFU TMCC2 (11721928_a_at) / Fold change /veh TMCC2 (11721928_a_at) / RFU IRGQ (11745062_a_at) / Fold change /veh IRGQ (11745062_a_at) / RFU FAM174B (11720279_a_at) / Fold change /veh FAM174B (11720279_a_at) / RFU TMPRSS4 (11748680_a_at) / Fold change /veh TMPRSS4 (11748680_a_at) / RFU FAM212B (11763350_a_at) / Fold change /veh FAM212B (11763350_a_at) / RFU PLEKHG5 (11743358_a_at) / Fold change /veh PLEKHG5 (11743358_a_at) / RFU ZSCAN30 (11745921_a_at) / Fold change /veh ZSCAN30 (11745921_a_at) / RFU CMKLR1 (11741424_a_at) / Fold change /veh CMKLR1 (11741424_a_at) / RFU LOC101060620 /// MAPK8IP1 (11723275_at) / Fold change /veh LOC101060620 /// MAPK8IP1 (11723275_at) / RFU SPTSSB (11747773_x_at) / Fold change /veh SPTSSB (11747773_x_at) / RFU PRSS12 (11739890_at) / Fold change /veh PRSS12 (11739890_at) / RFU BIN1 (11741810_x_at) / Fold change /veh BIN1 (11741810_x_at) / RFU WNT11 (11732464_a_at) / Fold change /veh WNT11 (11732464_a_at) / RFU C10orf10 (11716521_a_at) / Fold change /veh C10orf10 (11716521_a_at) / RFU C5orf56 (11738089_at) / Fold change /veh C5orf56 (11738089_at) / RFU CYB561 (11721691_x_at) / Fold change /veh CYB561 (11721691_x_at) / RFU ANKRD19P (11752326_a_at) / Fold change /veh ANKRD19P (11752326_a_at) / RFU OR2T12 /// OR2T33 /// OR2T8 (11738714_s_at) / Fold change /veh OR2T12 /// OR2T33 /// OR2T8 (11738714_s_at) / RFU VCAN (11748164_a_at) / Fold change /veh VCAN (11748164_a_at) / RFU JSRP1 (11732532_at) / Fold change /veh JSRP1 (11732532_at) / RFU KRTAP10-11 (11738290_x_at) / Fold change /veh KRTAP10-11 (11738290_x_at) / RFU MYO3A (11730013_a_at) / Fold change /veh MYO3A (11730013_a_at) / RFU EBF3 (11725865_a_at) / Fold change /veh EBF3 (11725865_a_at) / RFU CAMK2N1 (11719241_x_at) / Fold change /veh CAMK2N1 (11719241_x_at) / RFU C5orf56 (11738088_a_at) / Fold change /veh C5orf56 (11738088_a_at) / RFU OLFML3 (11715873_a_at) / Fold change /veh OLFML3 (11715873_a_at) / RFU LOC100653217 /// NTM (11731650_a_at) / Fold change /veh LOC100653217 /// NTM (11731650_a_at) / RFU MAPK11 (11762145_a_at) / Fold change /veh MAPK11 (11762145_a_at) / RFU FIZ1 (11724087_x_at) / Fold change /veh FIZ1 (11724087_x_at) / RFU OASL (11726364_x_at) / Fold change /veh OASL (11726364_x_at) / RFU SOX15 (11748057_x_at) / Fold change /veh SOX15 (11748057_x_at) / RFU CD79A (11719716_a_at) / Fold change /veh CD79A (11719716_a_at) / RFU HIST1H1D (11736915_at) / Fold change /veh HIST1H1D (11736915_at) / RFU CASKIN2 (11723855_a_at) / Fold change /veh CASKIN2 (11723855_a_at) / RFU LOC730098 (11760151_x_at) / Fold change /veh LOC730098 (11760151_x_at) / RFU OR4N2 (11742367_at) / Fold change /veh OR4N2 (11742367_at) / RFU PRRT2 (11749266_a_at) / Fold change /veh PRRT2 (11749266_a_at) / RFU SNX32 (11753110_a_at) / Fold change /veh SNX32 (11753110_a_at) / RFU CDHR5 (11726645_a_at) / Fold change /veh CDHR5 (11726645_a_at) / RFU RCAN1 (11760418_a_at) / Fold change /veh RCAN1 (11760418_a_at) / RFU FAM167A (11723789_a_at) / Fold change /veh FAM167A (11723789_a_at) / RFU FAM26E (11764081_at) / Fold change /veh FAM26E (11764081_at) / RFU ISYNA1 (11749810_s_at) / Fold change /veh ISYNA1 (11749810_s_at) / RFU ACY1 (11761880_at) / Fold change /veh ACY1 (11761880_at) / RFU 11764098_at / Fold change /veh 11764098_at / RFU SAMD14 (11745864_x_at) / Fold change /veh SAMD14 (11745864_x_at) / RFU NPB (11741838_a_at) / Fold change /veh NPB (11741838_a_at) / RFU TMPRSS6 (11731388_a_at) / Fold change /veh TMPRSS6 (11731388_a_at) / RFU KRTAP10-2 (11738614_at) / Fold change /veh KRTAP10-2 (11738614_at) / RFU ARHGAP8 /// PRR5-ARHGAP8 (11727945_x_at) / Fold change /veh ARHGAP8 /// PRR5-ARHGAP8 (11727945_x_at) / RFU KRTAP5-7 /// NADSYN1 (11734609_at) / Fold change /veh KRTAP5-7 /// NADSYN1 (11734609_at) / RFU RASL12 (11751679_a_at) / Fold change /veh RASL12 (11751679_a_at) / RFU CDKN2B (11736163_a_at) / Fold change /veh CDKN2B (11736163_a_at) / RFU PRF1 (11729649_at) / Fold change /veh PRF1 (11729649_at) / RFU, ZNF638 /// ZNF638-IT1 / Fold change vs veh, ZNF638 /// ZNF638-IT1 / RFU, PANK3 / Fold change vs veh, PANK3 / RFU, SH3YL1 / Fold change vs veh, SH3YL1 / RFU, ZEB2 / Fold change vs veh, ZEB2 / RFU, NRIP1 / Fold change vs veh, NRIP1 / RFU, PTTG1IP / Fold change vs veh, PTTG1IP / RFU, CAPN2 / Fold change vs veh, CAPN2 / RFU, MED14 / Fold change vs veh, MED14 / RFU, SNORA58 / Fold change vs veh, SNORA58 / RFU, C1orf63 / Fold change vs veh, C1orf63 / RFU, LRRFIP1 / Fold change vs veh, LRRFIP1 / RFU, NDUFAF7 / Fold change vs veh, NDUFAF7 / RFU, SLC12A2 / Fold change vs veh, SLC12A2 / RFU, IBTK / Fold change vs veh, IBTK / RFU, ESF1 / Fold change vs veh, ESF1 / Fold change vs veh, TMEM50B / RFU, TAOK1 / Fold change vs veh, TAOK1 / RFU, ACBD3 / Fold change vs veh, ACBD3 / RFU, TMA16 / Fold change vs veh, TMA16 / RFU, RWDD3 / Fold change vs veh, RWDD3 / RFU, BCAT1 / Fold change vs veh, BCAT1 / RFU, EDEM3 / Fold change vs veh, EDEM3 / RFU, TMEM33 / Fold change vs veh, TMEM33 / RFU, WDR75 / Fold change vs veh, WDR75 / RFU, AHCTF1 / Fold change vs veh, AHCTF1 / RFU, TFRC / Fold change vs veh, TFRC / RFU, ZDHHC17 / Fold change vs veh, ZDHHC17 / RFU, NOM1 / Fold change vs veh, NOM1 / RFU, ARL8B / Fold change vs veh, ARL8B / RFU, ZBTB11 / Fold change vs veh, ZBTB11 / RFU, TAMM41 / Fold change vs veh, TAMM41 / RFU, KIAA1704 /// LOC100996395 / Fold change vs veh, KIAA1704 /// LOC100996395 / RFU, ING1 / Fold change vs veh, ING1 / RFU, TRMT61B / Fold change vs veh, TRMT61B / RFU, FUBP3 / Fold change vs veh, FUBP3 / RFU, TP53 / Fold change vs veh, TP53 / RFU, TNKS2 / Fold change vs veh, TNKS2 / RFU, ZFP14 / Fold change vs veh, ZFP14 / RFU, ACTR2 / Fold change vs veh, ACTR2 / RFU, PPP3R1 / Fold change vs veh, PPP3R1 / RFU, PIK3R1 / Fold change vs veh, PIK3R1 / RFU, HNRNPA1 / Fold change vs veh, HNRNPA1 / RFU, RNF170 / Fold change vs veh, RNF170 / RFU, ZNF28 / Fold change vs veh, ZNF28 / RFU, RNGTT / Fold change vs veh, RNGTT / RFU, OGT / Fold change vs veh, OGT / RFU, BRD1 / Fold change vs veh, BRD1 / RFU, MARS / Fold change vs veh, MARS / RFU, ZNF655 / Fold change vs veh, ZNF655 / RFU, FAHD1 / Fold change vs veh, FAHD1 / RFU, BDP1 / Fold change vs veh, BDP1 / RFU, LRRCC1 / Fold change vs veh, LRRCC1 / RFU, ARID1A / Fold change vs veh, ARID1A / RFU, ZNF146 / Fold change vs veh, ZNF146 / RFU, ZNF330 / Fold change vs veh, ZNF330 / RFU, GPN3 / Fold change vs veh, GPN3 / RFU, C9orf123 / Fold change vs veh, C9orf123 / RFU, N4BP2L2 / Fold change vs veh, N4BP2L2 / RFU, ARFIP1 / Fold change vs veh, ARFIP1 / RFU, FAM179B / Fold change vs veh, FAM179B / RFU, BCL10 / Fold change vs veh, BCL10 / RFU, UHRF1BP1L / Fold change vs veh, UHRF1BP1L / RFU, BET1 / Fold change vs veh, BET1 / RFU, CNOT2 / Fold change vs veh, CNOT2 / RFU, ZNF268 / Fold change vs veh, ZNF268 / Fold change vs veh, ZNF507 / RFU, DGCR2 / Fold change vs veh, DGCR2 / RFU, WDSUB1 / Fold change vs veh, WDSUB1 / Fold change vs veh, HSP90B1 /// MIR3652 / RFU, ADSS / Fold change vs veh, ADSS / RFU, GK / Fold change vs veh, GK / RFU, ZNF148 / Fold change vs veh, ZNF148 / RFU, TAF9 / Fold change vs veh, TAF9 / RFU, SLC1A5 / Fold change vs veh, SLC1A5 / RFU, SLMO2 / Fold change vs veh, SLMO2 / RFU, ABCC4 / Fold change vs veh, ABCC4 / RFU, LOC101060439 /// RAP1B / Fold change vs veh, LOC101060439 /// RAP1B / RFU, RFX7 / Fold change vs veh, RFX7 / RFU, GTPBP10 / Fold change vs veh, GTPBP10 / RFU, CNEP1R1 / Fold change vs veh, CNEP1R1 / RFU, BIVM-ERCC5 /// ERCC5 / Fold change vs veh, BIVM-ERCC5 /// ERCC5 / RFU, ILF3 / Fold change vs veh, ILF3 / RFU 11762660_at / Fold change /veh 11762660_at / RFU VCAN (11757783_s_at) / Fold change /veh VCAN (11757783_s_at) / RFU DDX43 (11728927_at) / Fold change /veh DDX43 (11728927_at) / RFU KRT8 (11758188_x_at) / Fold change /veh KRT8 (11758188_x_at) / RFU NKD1 (11759106_at) / Fold change /veh NKD1 (11759106_at) / RFU SRD5A1 (11742802_a_at) / Fold change /veh SRD5A1 (11742802_a_at) / RFU TPSAB1 /// TPSB2 (11721975_s_at) / Fold change /veh TPSAB1 /// TPSB2 (11721975_s_at) / RFU GSTM3 (11746129_a_at) / Fold change /veh GSTM3 (11746129_a_at) / RFU IL23R (11737362_x_at) / Fold change /veh IL23R (11737362_x_at) / RFU TMEM51 (11727254_a_at) / Fold change /veh TMEM51 (11727254_a_at) / RFU PIWIL2 (11732686_x_at) / Fold change /veh PIWIL2 (11732686_x_at) / RFU ORM1 (11744905_x_at) / Fold change /veh ORM1 (11744905_x_at) / RFU CCDC152 (11743942_at) / Fold change /veh CCDC152 (11743942_at) / RFU ECM1 (11717891_a_at) / Fold change /veh ECM1 (11717891_a_at) / RFU IL23R (11748794_a_at) / Fold change /veh IL23R (11748794_a_at) / RFU TNFAIP8L3 (11732012_x_at) / Fold change /veh TNFAIP8L3 (11732012_x_at) / RFU MBOAT4 (11741988_at) / Fold change /veh MBOAT4 (11741988_at) / RFU 11764193_at / Fold change /veh 11764193_at / RFU TMEM53 (11763286_at) / Fold change /veh TMEM53 (11763286_at) / RFU MAGEB2 (11727129_at) / Fold change /veh MAGEB2 (11727129_at) / RFU TMEM200A (11744735_a_at) / Fold change /veh TMEM200A (11744735_a_at) / RFU CCDC152 (11751479_a_at) / Fold change /veh CCDC152 (11751479_a_at) / RFU FAM211A (11726209_a_at) / Fold change /veh FAM211A (11726209_a_at) / RFU RGS16 (11746705_a_at) / Fold change /veh RGS16 (11746705_a_at) / RFU VCAN (11755009_s_at) / Fold change /veh VCAN (11755009_s_at) / RFU RHOB (11743442_s_at) / Fold change /veh RHOB (11743442_s_at) / RFU RGS16 (11720943_a_at) / Fold change /veh RGS16 (11720943_a_at) / RFU RGS16 (11720944_at) / Fold change /veh RGS16 (11720944_at) / RFU, VPS4B / Fold change vs veh, VPS4B / RFU, CREB1 / Fold change vs veh, CREB1 / RFU, DNAJC13 / Fold change vs veh, DNAJC13 / RFU, GNAQ / Fold change vs veh, GNAQ / RFU, CDK5R1 / Fold change vs veh, CDK5R1 / RFU, ZRANB3 / Fold change vs veh, ZRANB3 / RFU, CUL4A / Fold change vs veh, CUL4A / RFU, CCNY / Fold change vs veh, CCNY / RFU, UFL1 / Fold change vs veh, UFL1 / RFU, COG3 / Fold change vs veh, COG3 / RFU, DIAPH2 / Fold change vs veh, DIAPH2 / RFU, SKA2 / Fold change vs veh, SKA2 / RFU, AFF3 / Fold change vs veh, AFF3 / RFU, LMF1 / Fold change vs veh, LMF1 / RFU, IPO11 / Fold change vs veh, IPO11 / RFU, DFFB / Fold change vs veh, DFFB / RFU, FOXP1 / Fold change vs veh, FOXP1 / RFU, CARD8 / Fold change vs veh, CARD8 / RFU, STRN3 / Fold change vs veh, STRN3 / RFU, ADK / Fold change vs veh, ADK / RFU, RASSF2 / Fold change vs veh, RASSF2 / RFU, WIPF1 / Fold change vs veh, WIPF1 / RFU, LARP1B / Fold change vs veh, LARP1B / RFU, RASA1 / Fold change vs veh, RASA1 / RFU, RB1 / Fold change vs veh, RB1 / RFU, PPFIA1 / Fold change vs veh, PPFIA1 / RFU, MAT2A / Fold change vs veh, MAT2A / RFU, CCT5 / Fold change vs veh, CCT5 / RFU, WDR92 / Fold change vs veh, WDR92 / RFU, CUX1 / Fold change vs veh, CUX1 / RFU, TTC7A / Fold change vs veh, TTC7A / RFU, TMEM135 / Fold change vs veh, TMEM135 / RFU, DEPTOR / Fold change vs veh, DEPTOR / RFU, CPM / Fold change vs veh, CPM / RFU, DNAJB6 / Fold change vs veh, DNAJB6 / RFU, CACNA2D3 / Fold change vs veh, CACNA2D3 / RFU, DTX4 / Fold change vs veh, DTX4 / RFU, TFCP2 / Fold change vs veh, TFCP2 / RFU, GMCL1 /// GMCL1P1 / Fold change vs veh, GMCL1 /// GMCL1P1 / RFU, AEBP2 / Fold change vs veh, AEBP2 / RFU, SNHG1 /// SNORD22 /// SNORD25 /// SNORD26 /// SNORD27 /// SNORD28 /// SNORD29 /// SNORD31 / Fold change vs veh, SNHG1 /// SNORD22 /// SNORD25 /// SNORD26 /// SNORD27 /// SNORD28 /// SNORD29 /// SNORD31 / Fold change (Aza/veh), C12orf56 (ProbeSet 11735607_a_at) / Fold change (ACY-1035/veh), C12orf56 (ProbeSet 11735607_a_at) / Fold change (Aza/veh), FGFR1OP (ProbeSet 11751329_s_at) / Fold change (ACY-1035/veh), FGFR1OP (ProbeSet 11751329_s_at) / Fold change (Aza/veh), VPS36 (ProbeSet 11739960_a_at) / Fold change (ACY-1035/veh), VPS36 (ProbeSet 11739960_a_at) / RFU SYPL1 (11715823_x_at) / Fold change /veh SYPL1 (11715823_x_at) / RFU IGFBP7 (11715501_s_at) / Fold change /veh IGFBP7 (11715501_s_at) / RFU REEP3 (11722064_at) / Fold change /veh REEP3 (11722064_at) / RFU IGLL1 (11728026_x_at) / Fold change /veh IGLL1 (11728026_x_at): dose or concentration left out as unconfirmed
# Settings: MV-4-11 cells, 48 hours
structure (smiles),measurement,value
Nc1ncn([C@@H]2O[C@H](CO)[C@@H](O)[C@H]2O)c(=O)n1 [azacitidine],RFU A4GNT (11735810_at),14.85 RFU
